Laboratory results taken from paper PMC4976923, “Potent Allosteric Dengue Virus NS5 Polymerase Inhibitors: Mechanism of Action and Resistance Profiling” (PLoS Pathogens, 2016).

Experiments:
DENV3 FL NS5 = biological target: T1, DENV3 FL NS5 (Dengue virus type 3, UniProt Q6YMS4); assay: DENV3 FL NS5 de novo initiation FAPA assay; assay type: biochemical; conditions: one experiment; read-out: DENV FL NS5 de novo initiation FAPA, IC50, DENV3
T1 construct: 100 nM DENV FL NS5 protein was added; made in house
Experimental: DENV1-4 FL NS5 dnI assays were performed as described previously. Briefly, compounds from 0–20 or -100 μM concentrations are two-fold serially diluted into 384-well black opaque plates (Corning Costar), after which 100 nM DENV FL NS5 protein was added and the plates incubated at RT for 20 min. RNA and ATTO-CTP, ATP, GTP and UTP were then added and the plates incubated for another 120 min. Reactions were stopped with buffer containing 25 nM CIP, re- incubated at RT for 60 min and read on a Tecan Safire II microplate reader. For order-of-addition experiments, DENV4 FL NS5 was incubated for one hour at RT with RNA, ATP, and GTP or RNA, ATP, GTP and ATTO-CTP, followed by exposure to serially diluted compounds for 20 min at RT. The missing components (ATTO-CTP and UTP or UTP alone) were added and the reactions continued for 120 min after which STOP buffer was added as before. All datapoints were performed in duplicate wells. Each compound was tested at least twice.
2 Co mpound testing with DENV dn I FAPA assays. Final dn I assa y reaction mixtures
3 contained 100 nM DENV 5 ´UTR-L-3´UTR IVT RNA, 20 µ M ATP, 20 µM GTP, 20 µM
4 UTP, 5 µM ATTO -CTP, and 100 nM of DENV FL NS5 protein in 15 µl in assa y buffer
5 comprising 50 mM Tris/ HCl, pH 7.5, 10 mM KCl, 1 mM MgCl2, 0.3 mM MnCl2 (DENV2
6 and 4) or 1 mM MnCl 2 (DENV1 and 3), 0.001% Triton- X-100 and 10 µ M cystein e [ 1] . To
7 perform dose-respons e inhibition measurements, compounds from 0- 20 or - 100 µM
8 concentr ations are two -fold seriall y diluted into 384-well black opaqu e plat es (Corning
9 Costar), after which 100 nM DENV FL NS5 protein was added into resp ect ive wells. The
10 plates wer e sealed, b riefl y shak en and centrif uged at 1500 rpm for 30 sec and incubated at RT
11 for 15 min. Thereafter,RNA and ATTO -CTP, ATP, GTP and UTP were added to the wells to
12 start the reactions. The pl ates wer e re-seal ed, shaken and centrifuged as before, followed b y
13 incubation RT for 120 min. Reactions were stopped by addition of 10 µl of 2.5X STOP
14 buffer (200 mM NaCl, 25 mM MgCl2, 1.5M DEA, pH 10; Promega) with 25 nM calf
15 intestinal phosphatase (CIP), re- incubation at RT for 60 min and read on a Tecan Safire II
16 microplate reader. For o r der-of-addition experiments, DENV4 FL NS5 was incubated for one
17 hour at RT with RNA, ATP, and GTP or RNA, ATP, GTP and ATTO-CTP, followed by
18 exposure to seriall y dilut ed compounds for 20 mi n at RT. The missing components (ATTO-
19 CTP and UTP or UTP alone) were added and the reactions continued for 120 min after which
20 STOP buffer was added as before. All datapoints were performed in duplicate wells. Each
21 compound was tested at l east twice.
23 Compound testing in DENV1-4 infected cells by high content imaging. Approximatel y 7
24 × 10^3 A549 cells per well were s eeded into 384-well plates in Ham’s F-12K medium

DENV2-NGC virus E802D = assay type: cell-based; conditions: A549, MOI = 0.2; 48 hr; plaque assay
DENV2 FL NS5 WT = biological target: T2, DENV2 FL NS5 WT (Dengue virus type 2, UniProt P14340); assay type: binding; conditions: 50 µM compound; for Protein melting temperature, Tm, DENV2 FL NS5 WT: DMSO 35.5
T2 construct: compared against activities of WT DENV2 or DENV4 FL NS5 proteins; made in house

DENV2 FL NS5 L511V/E802D = biological target: T3, DENV2 FL NS5 L511V/E802D (Dengue virus type 2, UniProt P14340, E3293D/L3003V); assay type: binding; conditions: 50 µM compound; for Protein melting temperature, Tm, DENV2 FL NS5 L511V/E802D: DMSO 35
T3 construct: Recombinant DENV2 (A, C) and DENV4 (B, D) FL NS5 proteins bearing single or double amino acid changes; made in house

[1] = biological target: DENV4 RdRp domain (aa 268–900) (Dengue virus type 4, UniProt P09866); assay: Thermo-denaturation assay, recombinant RdRp domain; assay type: binding; conditions: +50 μM compound; DMSO control 50
Experimental: Site-directed alanine mutations of DENV4 FL NS5 cDNA were performed using pET28-D4-MY01-22713 NS5FL [23] as a template, according to the manufacturer’s protocol (Stratagene, USA). Protein expressions of DENV1-4 FL NS5 and their stability analyses by thermo-fluorescence were performed as described previously. DENV de novo initiation and elongation FAPA assays were earlier described. […]
6 Fi g .5. Ef fects of N -pocket compounds on DENV pol ymerase thermo-stability. Melting
7 temperatur e (Tm) w as ass essed b y thermo-d enatur ation in presence of the S YPRO Oran ge
8 dye as described in Materials and Methods. (A-F) Representative meltin g curves of DEN V4
10 inhibitors or 5 % DMSO control. […]
16 controls treated with DMSO.

[2] = tested on: Compound 29-resistant DENV2-NGC EGFP-replicon cells; assay: Compound-resistant DENV2-NGC EGFP-replicon cells; assay type: cell-based; conditions: Dengue virus, DENV2, 48 h, read-out: EC50, Compound 29-resistant DENV2-NGC EGFP-replicon cells
DENV2 FL NS5 E802D = biological target: T4, DENV2 FL NS5 E802D (Dengue virus type 2, UniProt P14340, E3293D); assay type: binding; conditions: 50 µM compound; for Protein melting temperature, Tm, DENV2 FL NS5 E802D: DMSO 36
T4 construct: Recombinant DENV2 (A, C) and DENV4 (B, D) FL NS5 proteins bearing single or double amino acid changes; made in house

DENV2-NGC virus L512V = assay type: cell-based; conditions: A549, MOI = 0.2; 48 hr; plaque assay

T1 sequence (Q6YMS4 2491-3390): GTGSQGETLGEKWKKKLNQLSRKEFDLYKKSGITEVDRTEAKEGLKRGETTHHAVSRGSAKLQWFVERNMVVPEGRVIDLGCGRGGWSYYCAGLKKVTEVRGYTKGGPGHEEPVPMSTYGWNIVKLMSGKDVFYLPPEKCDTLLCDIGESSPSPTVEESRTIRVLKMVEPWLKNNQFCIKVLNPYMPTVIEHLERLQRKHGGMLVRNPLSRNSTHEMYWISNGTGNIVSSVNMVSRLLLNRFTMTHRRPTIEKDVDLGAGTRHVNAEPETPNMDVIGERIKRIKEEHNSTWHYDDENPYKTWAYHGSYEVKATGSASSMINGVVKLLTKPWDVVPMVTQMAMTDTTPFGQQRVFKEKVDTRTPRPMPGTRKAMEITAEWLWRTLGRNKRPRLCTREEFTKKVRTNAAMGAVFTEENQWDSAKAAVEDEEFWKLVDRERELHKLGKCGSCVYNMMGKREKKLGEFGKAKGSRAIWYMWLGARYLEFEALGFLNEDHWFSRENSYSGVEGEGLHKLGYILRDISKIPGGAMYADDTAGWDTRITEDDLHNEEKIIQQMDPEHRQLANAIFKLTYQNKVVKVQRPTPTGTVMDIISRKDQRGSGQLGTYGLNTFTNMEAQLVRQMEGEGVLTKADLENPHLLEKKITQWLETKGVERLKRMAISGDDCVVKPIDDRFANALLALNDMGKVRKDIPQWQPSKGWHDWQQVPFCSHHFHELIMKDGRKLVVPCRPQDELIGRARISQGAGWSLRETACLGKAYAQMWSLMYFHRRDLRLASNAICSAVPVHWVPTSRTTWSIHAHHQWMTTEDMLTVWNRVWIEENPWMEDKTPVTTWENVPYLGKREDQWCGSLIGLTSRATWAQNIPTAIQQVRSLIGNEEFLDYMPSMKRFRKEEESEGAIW
DENV4 RdRp domain (aa 268–900), sequence (P09866 2753-3387): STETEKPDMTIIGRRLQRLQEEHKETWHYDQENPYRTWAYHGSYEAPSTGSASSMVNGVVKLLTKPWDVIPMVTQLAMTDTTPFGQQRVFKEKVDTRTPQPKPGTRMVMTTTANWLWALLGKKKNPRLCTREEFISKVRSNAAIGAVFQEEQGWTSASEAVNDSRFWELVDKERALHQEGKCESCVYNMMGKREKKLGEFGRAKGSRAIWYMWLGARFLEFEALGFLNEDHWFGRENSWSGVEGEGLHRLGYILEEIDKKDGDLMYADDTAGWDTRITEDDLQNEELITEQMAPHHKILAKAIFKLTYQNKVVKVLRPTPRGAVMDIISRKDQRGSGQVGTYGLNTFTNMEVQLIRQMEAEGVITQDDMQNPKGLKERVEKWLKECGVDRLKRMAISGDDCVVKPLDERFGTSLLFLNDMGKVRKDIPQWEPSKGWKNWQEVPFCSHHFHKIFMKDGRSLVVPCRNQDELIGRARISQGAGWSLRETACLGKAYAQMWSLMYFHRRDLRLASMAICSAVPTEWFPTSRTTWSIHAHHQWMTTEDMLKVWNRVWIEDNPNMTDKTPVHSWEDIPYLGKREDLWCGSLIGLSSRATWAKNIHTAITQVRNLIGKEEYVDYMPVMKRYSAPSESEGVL

| SMILES | IC50 (DENV3 FL NS5) [µM] | EC50 (DENV2-NGC virus E802D) [µM] | Tm change compared to DMSO control, DENV2 FL NS5 WT (DENV2 FL NS5 WT) [°C] | Protein melting temperature, Tm, DENV2 FL NS5 WT (DENV2 FL NS5 WT) [°C] | Tm change compared to DMSO control, DENV2 FL NS5 L511V/E802D (DENV2 FL NS5 L511V/E802D) [°C] | Protein melting temperature, Tm, DENV2 FL NS5 L511V/E802D (DENV2 FL NS5 L511V/E802D) [°C] | Protein melting temperature Tm with compound, RdRp domain [1] [°C] | EC50 [2] [µM] | Tm change compared to DMSO control, DENV2 FL NS5 E802D (DENV2 FL NS5 E802D) [°C] | Protein melting temperature, Tm, DENV2 FL NS5 E802D (DENV2 FL NS5 E802D) [°C] | EC50 (DENV2-NGC virus L512V) [µM] |
| --- | --- | --- | --- | --- | --- | --- | --- | --- | --- | --- | --- |
| COc1cccc(S(=O)(=O)NC(=O)c2cc(-c3ccc(C#CCO)s3)c(OC)cc2C)c1 [Compound 26i] | 0.054 | – | – | – | – | – | – | – | – | – | – |
| COc1cc(OC)c(-c2ccc(C#CCO)s2)cc1C(=O)NS(=O)(=O)c1cccc2cccnc12 [Compound 29] | 0.016 | 5.8 | 4.5 | 40 | 0.5 | 35.5 | 64 | 34 | 2.0 | 38 | 6 |
| COc1cccc(S(=O)(=O)NC(=O)c2cc(-c3ccc(C#CCO)s3)c(OC)cc2OC)c1 [Compound 27] | – | 1.42 | 1.5 | 37 | 0 | 35 | 58 | 41.7 | 0 | 36 | 2.2 |
